# From patent US20140086939A1, “COMPOSITIONS AND METHODS FOR DETECTING AND TREATING CANCER” (priority 2011, published 2014)
# Entries after “also recorded” stand apart in the source; their conditions may differ.
# How the values were obtained:
# [1] = test system: Ikkβ^f/f and Ikkβ^Δ dih10 cells; test: Subcutaneous tumor growth of implanted dih10 hepatoma cells in C57BL/6 mice; assay type: in vivo, mouse
# Method: FIG. 20. IKKβ deletion in initiated cells enhances proliferation and self-renewal of HCC progenitors. (A) DEN-induced HCC (dih) cell strains from Ikkβ^f/f mice were cultured and infected with Adv-GFP or Adv-Cre. Whole cell lysates of infected dih10 cells were immunoblotted for IKKβ (bottom panel). The cells were further cultured without serum on Petri dishes to form hepatospheres (upper panels). Numbers of 1^0 and 2^0 hepatospheres formed per 100 plated cells were determined (n=3; *: p<0.05). Magnification bar=100 μm. (B) Ikkβ^f/f dih10 cells were infected with an empty retrovirus (vector) or a retrovirus expressing IκBα super-repressor (SR). Stably transfected cells were selected and cultured as above and hepatosphere formation was analyzed (n=3; *: p<0.05). (C, D) IKKβ expressing (Ikkβ^f/f) and deficient (Ikkβ^Δ) dih10 cells (2.5×10^6 each) were s.c. injected into 8 weeks old C57BL/6 mice. (C) Allograft volume was measured weekly (n=5; *: p<0.01). Dissected tumors are shown on the right. (D) BrdU incorporation into tumors was determined (n=5; *: p<0.05). (E) Ikkβ^f/f and Ikkβ^Δ dih12 cells were labeled with dsRed and 4×10^5 cells were seeded into MUP-uPA mouse livers. Relative amounts of dsRed DNA in transplanted MUP-uPA livers were determined by real-time PCR 3 weeks post-inoculation and normalized to actin DNA as a measurement of cell growth (n=5; *: p<0.05). (F) Ikkβ^Δ dih10 cells were reconstituted with a control vector or WT IKKβ expression vector and were s.c. injected into 8 weeks old C57BL/6 mice. Allograft volume was measured weekly (n=5; *: p<0.01). (G) Ikkβ^f/f and IkkβΔ dih10 cells were s.c. injected as above. Starting from day 2, mice were treated daily with MLN120B or vehicle by oral gavage. Tumor volume was measured weekly (n=5; *: p<0.01, f/f/control vs. f/f/MLN by one-way ANOVA). Please also see FIG. 27.
# (§1) FIG. 22. ROS-mediated SHP1/2 inhibition in IKKβ-deficient HCCs correlates with STAT3 activation and accelerated tumor growth. (A) Tumors derived from Ikkβ^f/f (f/f) and Ikkβ^Δ (Δ) dih10 cells were collected and lysed. Tumor lysates were immunoprecipitated with an anti-JAK2 antibody and examined for JAK2 tyrosine phosphorylation with PY20 antibody. Tumor lysates were also used for immunoblot analyses with the indicated antibodies. (B) SHP1 and SHP2 were immunoprecipitated from above tumor lysates and their phosphatase activities were measured (n=4; *: p<0.05). (C) Fresh frozen sections of HCCs from transplanted MUP-uPA mice were analyzed for superoxide accumulation by DHE staining. Fluorescence intensity in several fields was quantitated by ImageJ and relative average increases in fluorescent intensity are shown (n=3; *: p<0.01). Magnification bar=100 μm. (D-F) Ikkβ^f/5 (f/f) and Ikkβ^Δ (Δ) dih10 cells […] each were s.c. implanted into 8 weeks old C57BL/6 mice. Starting on day 2, the mice were switched to a diet containing vehicle or BHA (0.7%) for 6 weeks. (D) Tumors were collected from BHA treated and untreated mice, lysed and SHP1/2 phosphatase activities were measured. The data were plotted as SHP1/2 phosphatase activities in Ikkβ^Δ tumors relative to activities in Ikkβ^f/f tumors (n=4; *: p<0.05). (E) Tumor lysates were used to determine JNK kinase activity and STAT3 phosphorylation. (F) Tumor volume was measured weekly (n=5; p<0.01, Δ/ctrl vs. Δ/BHA by one way ANOVA). Please also see FIG. 29.
# FIG. 30. STAT3 is required for HCC formation and growth. (A-D) Ikkβ^f/f (f/f) and Ikkβ^Δ (Δ) dih10 cells were s.c. implanted into 8 weeks old C57BL/6 mice. (A) Starting on day 2, the mice were i.p. injected with vehicle (ctrl) or 0.5 mg/mouse AG490 daily. Tumor volume was measured (n=5; p<0.05, f/f/vehicle vs. f/f/AG490; p<0.01, Δ/vehicle vs. Δ/AG490 by one way ANOVA). (B) After 6 weeks, tumors were removed, lysed and analyzed by immunoblotting with the indicated antibodies. […] (D) After 6 weeks, tumors were removed and analyzed as above. […]
# [2] = biological target: T1, STAT3 (Mus musculus, UniProt P42227); test: STAT3 phosphorylation in lysates of dih10 tumors (immunoblot); assay type: in vivo
# T1 construct: from tissue; host or cells: subcutaneous tumors formed by Ikkβf/f or IkkβΔ dih10 cells in C57BL/6 mice
# Method: (A) Tumors derived from Ikkβ^f/f (f/f) and Ikkβ^Δ (Δ) dih10 cells were collected and lysed. Tumor lysates were immunoprecipitated with an anti-JAK2 antibody and examined for JAK2 tyrosine phosphorylation with PY20 antibody. Tumor lysates were also used for immunoblot analyses with the indicated antibodies. (B) SHP1 and SHP2 were immunoprecipitated from above tumor lysates and their phosphatase activities were measured (n=4; *: p<0.05). (C) Fresh frozen sections of HCCs from transplanted MUP-uPA mice were analyzed for superoxide accumulation by DHE staining. Fluorescence intensity in several fields was quantitated by ImageJ and relative average increases in fluorescent intensity are shown (n=3; *: p<0.01). Magnification bar=100 μm. (D-F) Ikkβ^f/5 (f/f) and Ikkβ^Δ (Δ) dih10 cells 2.5×10^8 each were s.c. implanted into 8 weeks old C57BL/6 mice. Starting on day 2, the mice were switched to a diet containing vehicle or BHA (0.7%) for 6 weeks. (D) Tumors were collected from BHA treated and untreated mice, lysed and SHP1/2 phosphatase activities were measured. The data were plotted as SHP1/2 phosphatase activities in Ikkβ^Δ tumors relative to activities in Ikkβ^f/f tumors (n=4; *: p<0.05). (E) Tumor lysates were used to determine JNK kinase activity and STAT3 phosphorylation. (F) Tumor volume was measured weekly (n=5; p<0.01, Δ/ctrl vs. Δ/BHA by one way ANOVA).
# Antibodies used were: anti-IKKβ (Upstate), anti-JNK1/2 (Pharmingen), anti-c-Jun (Santa Cruz), anti-ERK, and anti-phospho-ERK (Cell Signaling), anti-STAT3 (Santa Cruz), anti-phospho-STAT3 (Cell signaling), anti-Albumin (Novus), anti-SHP1 (Santa Cruz), anti-SHP2 (Cell signaling), anti-SOCS3 (Immuno-Biological Laboratories), anti-phospho-p65 (Cell signaling). […] To measure SHP1/2 phosphatase activities, SHP1 and SHP2 were immunoprecipitated from freshly prepared lysates. Dithiothreitol (DTT) and other reducing agents were excluded from all buffers. SHP1/2 phosphatase activities were determined as described (Lee and Esselman, 2002).
# [3] = test system: many different types of cancer cells transplanted into mice; settings: in vivo; cited from earlier work
# [4] = test system: SHP1 and SHP2; test: SHP1/2 phosphatase activities in lysates of dih10 tumors; assay type: in vivo, mouse; settings: diet containing BHA (0.7%) for 6 weeks
# Description: as §1, with “Starting on day 2, the mice were switched to a diet containing vehicle or BHA (0.7%) for 6 weeks.” left out, “The data were plotted as SHP1/2 phosphatase activities in Ikkβ^Δ tumors relative to activities in Ikkβ^f/f tumors (n=4; *: p<0.05). (E) Tumor lysates were used to determine JNK kinase activity and STAT3 phosphorylation.” left out, “Please also see FIG. 29.” left out
# (§2) RNA extraction and q-PCR were described (Sakurai et al., 2006). […] SHP1/2 phosphatase activities were determined as described (Lee and Esselman, 2002).
# [5] = test system: liver; settings: cited from earlier work
# [6] = test system: JAK2; test: JAK2 phosphorylation in IKKβ-deficient tumors; assay type: in vivo, mouse; settings: BHA treatment of tumor-bearing mice
# Description: as §1, with “The data were plotted as SHP1/2 phosphatase activities in Ikkβ^Δ tumors relative to activities in Ikkβ^f/f tumors (n=4; *: p<0.05). (E) Tumor lysates were used to determine JNK kinase activity and STAT3 phosphorylation.” left out, “Please also see FIG. 29.” left out
# [7] = test system: JNK; test: JNK kinase activity in lysates of dih10 tumors; assay type: in vivo, mouse; settings: diet containing BHA (0.7%) for 6 weeks
# Description: as §1, with “Starting on day 2, the mice were switched to a diet containing vehicle or BHA (0.7%) for 6 weeks.” left out, “The data were plotted as SHP1/2 phosphatase activities in Ikkβ^Δ tumors relative to activities in Ikkβ^f/f tumors (n=4; *: p<0.05). (E) Tumor lysates were used to determine JNK kinase activity and STAT3 phosphorylation.” left out, “Please also see FIG. 29.” left out
# as §2
# [8] = test system: liver; settings: cited from earlier work; remark: listed apart in the source
# [9] = test system: STAT3 phosphorylation in HepG2 cells; test: IL-6 induced STAT3 phosphorylation by immunoblotting in HepG2 cells; assay type: cell-based; settings: human liver cancer cell line (HepG2) serum starved 48 hrs; 20 μM MLN120B; 10 ng/ml IL-6 30 min
# Method: (§3) FIG. 28. IKKβ ablation enhances STAT3 activation. (A) Ikkβ^f/f and Ikkβ^Δ dih10 cells were cultured under hepatosphere-forming conditions for 3 days and treated with 10 ng/ml of IL-6 for the indicated times. Whole cell lysates were analyzed by immunoblotting for STAT3 phosphorylation. (B) Ikkβ^f/f and Ikkβ^Δ dih10 cells were cultured under hepatosphere-forming conditions for 3 days and treated with 10 ng/ml of IL-22 for 30 min. STAT3 phosphorylation was analyzed as above. (C) Ikkβ^Δ dih10 cells were cultured under hepatosphere-forming conditions and infected with a control Adv or an Adv vector expressing constitutively active IKKβ^EE. The cells were treated with 10 ng/ml of IL-6 for 15 min and STAT3 phosphorylation was analyzed. (D) Ikkβ^f/f dih10 cells and HepG2 cells were serum starved for 48 hrs and treated with 20 μM MLN120B for the indicated times. The cells were then stimulated with 10 ng/ml of IL-6 for 30 min and STAT3 phosphorylation was analyzed by immunoblotting. Relative activities (RA) of STAT3 phosphorylation were determined by densitometry. (E) Ikkβ^f/f (f/f) and Ikkβ^Δ (Δ) HCCs from transplanted MUP-uPA mice were collected and total RNA was extracted. Expression of IL-6 and IL-22 mRNAs was measured by RT PCR.
# as §2
# [10] = test system: STAT3 phosphorylation in Ikkβ^f/f dih10 cells; test: IL-6 induced STAT3 phosphorylation by immunoblotting in dih10 cells; assay type: cell-based, mouse; settings: dih cells serum starved 48 hrs; 20 μM MLN120B; 10 ng/ml IL-6 30 min
# Method: as §3, §2
# [11] = test system: Huh-7; settings: 5 mg/kg given every other day; cited from earlier work
# [12] = test system: human breast cancer cell line with constitutive STAT3 activity; settings: in vivo; cited from earlier work
# [13] = AG490 0.5 mg/mouse i.p. daily from day 2
# [14] = diet containing BHA (0.7%) for 6 weeks
# [15] = s.c. dih10 in C57BL/6, MLN120B daily by oral gavage from day 2
# T1 sequence (P42227 whole entry): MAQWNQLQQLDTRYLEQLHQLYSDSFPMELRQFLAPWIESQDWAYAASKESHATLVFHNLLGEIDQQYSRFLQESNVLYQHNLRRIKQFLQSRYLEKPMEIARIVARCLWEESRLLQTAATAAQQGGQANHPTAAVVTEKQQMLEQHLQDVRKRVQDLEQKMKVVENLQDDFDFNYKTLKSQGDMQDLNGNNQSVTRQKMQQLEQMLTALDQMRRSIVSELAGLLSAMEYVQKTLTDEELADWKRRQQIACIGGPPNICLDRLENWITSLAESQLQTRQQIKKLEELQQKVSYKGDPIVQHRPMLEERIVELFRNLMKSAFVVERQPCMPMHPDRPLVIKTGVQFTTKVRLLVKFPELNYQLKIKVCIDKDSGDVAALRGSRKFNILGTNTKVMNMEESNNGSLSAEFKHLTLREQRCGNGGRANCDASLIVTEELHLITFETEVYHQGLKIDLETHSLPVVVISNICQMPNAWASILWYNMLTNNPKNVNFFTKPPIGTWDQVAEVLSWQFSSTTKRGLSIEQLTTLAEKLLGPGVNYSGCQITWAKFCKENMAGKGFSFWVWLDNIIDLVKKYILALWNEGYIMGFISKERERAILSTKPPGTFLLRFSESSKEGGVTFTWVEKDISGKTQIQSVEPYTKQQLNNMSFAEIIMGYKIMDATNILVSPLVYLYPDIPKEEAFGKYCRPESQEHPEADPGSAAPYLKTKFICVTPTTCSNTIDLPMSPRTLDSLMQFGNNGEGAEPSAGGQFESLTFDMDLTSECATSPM
structure (smiles),measurement,setting,value
N#C/C(=C/c1ccc(O)c(O)c1)C(=O)NCc1ccccc1 [AG490],in vivo tumorigenic growth of dih cells,[1],effective inhibition
same,Ikkβ^f/f tumorigenic growth,[1]; [13],more modest effect
same,growth of Ikkβ^Δ subcutaneous tumors,[1]; [13],inhibited the growth
same,STAT3 activity in dih cell tumors,[2],effective inhibition
same,STAT3 phosphorylation in tumors,"[2]; AG490 0.5 mg/mouse i.p. daily, tumors after 6 weeks, both IKKβ status",inhibited STAT3 phosphorylation regardless of IKKβ status
Cc1cc(Nc2nc(N[C@@H](C)c3ncc(F)cn3)ncc2Cl)n[nH]1 [AZD1480],tumorigenic growth of cancer cells transplanted into mice,[3],Effective inhibition
"COc1ccc(O)c(C(C)(C)C)c1 [BHA, butylated hydroxyanisole]",Ikkβ^Δ tumor growth,[1]; [14],inhibits tumor growth; also recorded: reduced Ikkβ^Δ tumor growth to a level that was similar to that of Ikkβ^f/f tumors in untreated mice
same,SHP1/2 phosphatase activities in IKKβ-deficient tumors,[4],restores SHP1/2 activity; also recorded: completely restored
same,STAT3 phosphorylation in tumors,[2]; [14],reduced
same,"liver damage, compensatory proliferation and hepatocarcinogenesis","[5]; Ikkβ^Δhep and Ikkγ^Δhep mutant mice, BHA consumption",reversed
same,ROS accumulation in the liver,[5]; dietary administration,can be prevented
same,JAK2 phosphorylation in IKKβ-deficient tumors,[6],reduces
same,JNK activity in tumors,[7],reduced JNK activity
"CCN(CC)N=O [DEN, diethyl nitrosamine]",HCC induction,[8]; male mice older than 4 weeks of age,no longer effective in HCC induction on its own
same,"HCC induction, fraction of male mice",[8]; single dose to two-weeks-old mice,100%
COc1c(Cl)cc2c([nH]c3cnccc32)c1NC(=O)c1cccnc1C [MLN120B],tumorigenic growth (tumor volume) of Ikkβ^f/f dih cells,[1]; [15],enhanced tumorigenic growth
same,tumorigenic growth (tumor volume) of Ikkβ^Δ dih cells,[1]; [15],not Ikkβ^Δ cells
same,IL-6 induced STAT3 activation,[9],enhanced IL-6 induced STAT3 activation
same,IL-6 induced STAT3 activation,[10],enhanced IL-6 induced STAT3 activation
Cc1ccc(S(=O)(=O)OCC(=O)Nc2ccc(C(=O)O)c(O)c2)cc1 [S3I-201],in vivo tumorigenic growth of dih cells,[1],effective inhibition
same,STAT3 tyrosine phosphorylation in Huh-7 xenografts,[11],inhibited
same,tumor growth of Huh-7 xenografts,[11],inhibited
same,tumor growth of breast cancer xenografts,[12],inhibition of tumor growth
